Reference: PMC11505650, “Chemical and Biological Characterization of Metabolites from Silene viridiflora Using Mass Spectrometric and Cell-Based Assays” (Biomolecules, 2024)

Experiments:
HCC1395 cells = assay: MTT cytotoxicity assay, HCC1395 cells, 72 h; format: cell-based, human; details: MTT test, 72 h exposure
Method: (§1) The cytotoxic activity of the samples was screened against the human triple-negative breast cancer BT-20 (HTB-19), HCC1395 (ATCC®CRL-2324), MDA-MB-231 (CRM-HTB-26), and HEK293 (CRL-1573) embryonic kidney cell lines. The cells were cultured in Dulbecco’s modified eagle medium (DMEM) supplemented with 4.5 g/L glutamine and D-glucose, 10% fetal bovine serum (FBS), and a 1% penicillin/streptomycin mixture and incubated at 37 °C under a 5% CO2 humidified atmosphere. Cell passage and seeding performed after washing the adherent cells with PBS and detaching them using a Trypsin solution. The cells were detached and resuspended at 160,000 cells/mL and added into each well of a transparent 384-well plate in the final volume of 25 µL/well (4000 cells per well). The cells were maintained in DMEM containing 10% FBS at 37°C and 5% CO2 overnight. The next day, the 384-well plate was examined under an inverted microscope to identify cell seeding errors, growth characteristics, morphology and equal distribution. Then, the medium in each well was removed using a washer–dispenser (Biotek FX, Beersel, Belgium) and replaced by 40 μL of the fresh medium containing the indicated concentrations of compounds and incubated for 72 h.
(§2) The 250 µg/mL concentrations of methanol extract and 20 mM concentrations of individual compounds were prepared as a stock solution in DMSO (Sigma-Aldrich Chemie GmbH, Taufkirchen, Germany) prior to use. A complete medium was used to prepare this solution. The samples were further serially diluted in DMSO into eleven different concentrations and then added to the complete cell culture medium so as to attain the final concentrations ranging from 250 to 8.6 µg/mL (250, 178.6, 127.6, 91.1, 65.1, 46.5, 33.2, 23.7, 16.9, 12.1, and 8.6 µg/mL) for the extract and 20 to 1.45 µM (20, 15.4, 11.8, 9.1, 7.0, 5.4, 4.1, 3.2, 2.5, 1.9, and 1.5 µM) for the individual compounds in 384-well plates, which were added in four replicates. A 40 µL sample containing medium from each concentration was dispensed into each well. The concentration of the solvent, DMSO, was equal in all the wells and was fixed at 0.05% in the medium. As a negative control, cells were treated with DMEM containing DMSO. Docetaxel (concentration of 0.02 µM to 6.9 nM) is used as a positive control.
(§3) The cytotoxicity of the samples was determined in triplicate using the 3-(4,5-dimethylthiazol-2-yl)-2,5-diphenyltetrazolium bromide (MTT) cell viability assay. The next day, the medium of the 384-well plates treated with samples was removed. Then, 25 µL of MTT solution (0.5 mg MTT in 1 mL PBS) was added to each well and incubated at 37 °C for 2 h. After incubation with MTT for 2 h, the solution was removed from the wells by the washer–dispenser, and the formed formazan crystals were then dissolved in 25 µL of DMSO. After a further 10 min of incubation at room temperature, the samples were mixed briefly, and the absorbance was detected at 510 nm with a Tecan Infinite 200 Pro Reader (Tecan Group Ltd., Männedorf, Switzerland). The cell viability rate (%) was calculated by the following formula:Cell viability rate (%) = ((OD of treated cells − OD of media (blank)/(OD of control cells − OD of media (blank)) × 100%
(§4) The experiments were carried out in four replicates. Continuous variables were presented as the mean ± SD. […] The level of significance was set at p < 0.05. The IC50 (inhibitory concentration which caused 50% inhibition) was estimated using the linear regression method of plots of the percent of cell viability against the concentration of the tested compounds using GraphPad Prism 8.0.1 software (San Diego, CA, USA).

MDA-MB-231 cells = assay: MTT cytotoxicity assay, MDA-MB-231 cells, 72 h; format: cell-based, human; details: MTT test, 72 h exposure
Method: as §1, §2, §3, §4

HEK293 cells = assay: MTT cytotoxicity assay, HEK293 embryonic kidney cells, 72 h; format: cell-based, human; details: MTT test, 72 h exposure
BT-20 cells = assay: MTT cytotoxicity assay, BT-20 cells, 72 h; format: cell-based, human; details: MTT test, 72 h exposure
Method: as §1, §2, §3, §4

Wnt signaling = assay: TOPFlash assay (Wnt3a-stimulated BT-20 reporter cells); format: cell-based, human; details: BT-20 cells, 20 µM (extract 20 μg/mL)
Method: The TOPFlash assay was performed as described. TNBC BT-20 cell line stably transfected with TopFlash reporter plasmid was seeded at 450,000 cells/mL in a white opaque 384-well plate in the final volume of 25 μL. The cells were maintained and incubated at 37 °C with 5% CO2 overnight for attachment. Subsequently, they were transfected by a plasmid encoding Renilla luciferase under the CMV promoter using 12 μg/mL of DNA and 40 μL/mL XtremeGENE 9 reagent as described in the manufacturer’s protocol. The next day, the medium in each well was replaced with a 20 μL fresh medium containing Wnt3a (2.5 μg/mL) and compound dilution. Compound dilutions were prepared by serial dilution in DMSO and diluted with the amount of medium necessary to obtain their final concentrations indicated on the figures and tables and maintain a concentration of DMSO of 0.05% in all assay points. Wnt3a was added after 1 h of preincubation with compound dilution. After overnight incubation, the supernatant in each well was removed by the washer–dispenser, and the luciferase activity was measured as described. […] Next, the luciferase activity of the firefly and Renilla luciferases was detected sequentially in individual wells of a 384-well plate through the injection of corresponding measurement solutions in Tecan Infinite 200 Pro multifunctional plate reader with an injection module.

[1] = tested on: MCF-7, MDA-MB-231, and MDA-MB-468 cells; set-up: method as in PMID 33192507; details: breast cancer cells; cited from earlier work
[2] = Homo sapiens, HCC1395, average ± SEM, N = 3
[3] = Homo sapiens, MDA-MB-231, average ± SEM, N = 3
[4] = Homo sapiens, HEK293, average ± SEM, N = 3
[5] = Homo sapiens, BT-20, average ± SEM, N = 3

| SMILES | IC50 (HCC1395 cells; [2]) [µM] | IC50 (MDA-MB-231 cells; [3]) [µM] | IC50 (HEK293 cells; [4]) [µM] | IC50 (BT-20 cells; [5]) [µM] | also measured |
| --- | --- | --- | --- | --- | --- |
| C[C@@H]1O[C@@H](OC[C@H]2O[C@@H](Oc3c(-c4ccc(O)c(O)c4)oc4cc(O)cc(O)c4c3=O)[C@H](O)[C@@H](O)[C@@H]2O)[C@H](O)[C@H](O)[C@H]1O [Compound 41, Rutin (quercetin-3-O-rutinoside)] | > 20 | > 20 | > 20 | > 20 | – |
| CC1(C)CC[C@]2(C(=O)O)CC[C@]3(C)C(=CC[C@@H]4[C@@]5(C)CC[C@H](O)C(C)(C)[C@@H]5CC[C@]43C)[C@@H]2C1 [Compound 71, Oleanolic acid] | > 20 | > 20 | > 20 | > 20 | – |
| O=C(O)C=Cc1ccc(O)cc1 [Compound 21, p-Coumaric acid] | > 20 | > 20 | > 20 | > 20 | – |
| CC(C)(O)CC[C@@H](O)[C@](C)(O)[C@H]1CC[C@@]2(O)C3=CC(=O)[C@@H]4C[C@@H](O)CC[C@]4(C)[C@H]3CC[C@]12C [Compound 58, 2-Deoxy-20-hydroxyecdysone] | 0.21 ± 0.01 | 0.53 ± 0.14 | 0.27 ± 0.01 | 0.12 ± 0.006 | Inhibition of Wnt signaling (Wnt signaling): not a Wnt signaling inhibitor |
| CC(C)(O)CC[C@@H](O)[C@](C)(O)[C@H]1CC[C@@]2(O)C3=CC(=O)[C@@H]4C[C@@H](O)[C@@H](O)C[C@]4(C)[C@H]3[C@H](O)C[C@]12C [Compound 75, Turkesterone] | > 20 | > 20 | > 20 | > 20 | – |
| C[C@H]([C@H](O)CCC(C)(C)O)[C@H]1CC[C@@]2(O)C3=CC(=O)[C@@H]4C[C@@H](O)CC[C@]4(C)[C@H]3CC[C@]12C [Compound 72, 2-Deoxyecdysone] | > 20 | > 20 | > 20 | > 20 | – |
| CC(=O)O[C@@]12CO[C@@H]1C[C@H](O)[C@@]1(C)C(=O)[C@H](O)C3=C(C)[C@@H](OC(=O)[C@H](O)[C@@H](NC(=O)OC(C)(C)C)c4ccccc4)C[C@@](O)([C@@H](OC(=O)c4ccccc4)[C@H]21)C3(C)C [Docetaxel, reference compound] | – | – | – | – | IC50 (HCC1395 cells; Homo sapiens, HCC1395, positive control): 0.0065 ± 7e-07 µM; IC50 (MDA-MB-231 cells; Homo sapiens, MDA-MB-231, positive control): 0.0177 ± 2.9e-06 µM; IC50 (HEK293 cells; Homo sapiens, HEK293, positive control): 0.00447 ± 1.3e-06 µM; IC50 (BT-20 cells; Homo sapiens, BT-20, positive control): 0.0044 ± 8e-07 µM |
| C[C@H]([C@H](O)CCC(C)(C)O)[C@H]1CC[C@@]2(O)C3=CC(=O)[C@@H]4C[C@@H](O)[C@@H](O)C[C@]4(C)[C@H]3CC[C@]12C [Compound 73, Ecdysone] | > 20 | > 20 | > 20 | > 20 | – |
| CC(C)(O)CC[C@@H](O)[C@](C)(O)[C@H]1CC[C@@]2(O)C3=CC(=O)[C@@H]4C[C@@H](O)[C@@H](O)C[C@]4(C)[C@H]3CC[C@]12C [Compound 50, 20-Hydroxyecdysone] | > 20 | > 20 | > 20 | > 20 | Concentration range in which autophagy induction / synergistic effect with doxorubicin was observed [1]: 250 to 750 µM |
| O=c1cc(-c2ccc(O)cc2)oc2cc(O[C@@H]3O[C@H](CO)[C@@H](O)[C@H](O)[C@H]3O)c([C@@H]3O[C@H](CO)[C@@H](O)[C@H](O)[C@H]3O)c(O)c12 [Compound 38, Saponarin (isovitexin 7-O-β-D-glucoside)] | – | – | – | – | IC50 (HCC1395 cells; average ± SEM, N = 3): > 20 µM; IC50 (MDA-MB-231 cells; average ± SEM, N = 3): > 20 µM; IC50 (HEK293 cells; average ± SEM, N = 3): > 20 µM; IC50 (BT-20 cells; average ± SEM, N = 3): > 20 µM |
| C[C@@H]1C(=O)O[C@H](C)[C@H]1C[C@@H](O)[C@](C)(O)[C@H]1CC[C@@]2(O)C3=CC(=O)[C@@H]4C[C@@H](O)[C@@H](O)C[C@]4(C)[C@H]3CC[C@]12C [Compound 76, Cyasterone] | > 20 | > 20 | > 20 | > 20 | – |
| CC(=O)OC(C)(C)CC[C@@H](O)[C@](C)(O)[C@H]1CC[C@@]2(O)C3=CC(=O)[C@@H]4C[C@@H](O)[C@@H](O)C[C@]4(C)[C@H]3CC[C@]12C [Compound 74, Viticosterone E] | > 20 | > 20 | > 20 | > 20 | – |
| O=C(O)[C@]1(O)C[C@@H](O)[C@@H](O)[C@H](O)C1 [Compound 12, Quinic acid] | > 20 | > 20 | > 20 | > 20 | – |
| COc1cc(/C=C/C(=O)O)ccc1O [Compound 19, Ferulic acid] | – | – | – | – | IC50 (HCC1395 cells; average ± SEM, N = 3): > 20 µM; IC50 (MDA-MB-231 cells; average ± SEM, N = 3): > 20 µM; IC50 (HEK293 cells; average ± SEM, N = 3): > 20 µM; IC50 (BT-20 cells; average ± SEM, N = 3): > 20 µM |
| O=c1cc(-c2ccc(O)cc2)oc2c([C@@H]3OC[C@H](O)[C@H](O)[C@H]3O)c(O)c([C@@H]3O[C@H](CO)[C@@H](O)[C@H](O)[C@H]3O)c(O)c12 [Compound 29, Schaftoside (apigenin 6-C-β-D -glucoside-8-C-α-L-arabinoside)] | > 20 | > 20 | > 20 | > 20 | – |
